Laboratory results reported in ChEMBL document CHEMBL3885861, “Open TG-GATES”.

Species on record: Rattus norvegicus
Assay: Open TG-GATES - Regimen: Single
Type: toxicity, organism-based, Sprague-Dawley
Design: regimen Single, gender Male, age 6 weeks
Settings: in vivo, iv, 120 mg/kg, route intravenous injection, dose level High; for APTT / Bas / Eos / Fbg / Hb / Ht / Lym / MCH / MCHC / MCV / Mono / Neu / PT / Plat / RBC / Ret / WBC: tissue Blood; for KIDNEY_L / KIDNEY_R / KIDNEY_TOTAL: tissue Kidney; for LIVER: tissue Liver; for A/G / ALP / ALT / AST / BUN / CRE / Ca / Cl / DBIL / GLC / IP / K / LDH / Na / PL / RALB / TBIL / TC / TG / TP / gamma-GTP: tissue Plasma

Compound: CN(C)c1ncnc2c1ncn2[C@@H]1O[C@H](CO)[C@@H](N)[C@H]1O [PUROMYCIN AMINONUCLEOSIDE]
- TERMINAL_BW (3 h): 210.5 g
- APTT (3 h): 22.4 s
- Bas (3 h): 0%
- Eos (3 h): 0.8%
- Fbg (3 h): 278.6 mg/dL
- Hb (3 h): 12.8 g/dL
- Ht (3 h): 37.9%
- Lym (3 h): 44.4%
- MCH (3 h): 21.1 pg
- MCHC (3 h): 33.8%
- MCV (3 h): 62.5 fL
- Mono (3 h): 3%
- Neu (3 h): 51.2%
- PT (3 h): 16.3 s
- Plat (3 h): 116 x10_4/uL
- RBC (3 h): 607 x10_4/ul
- Ret (3 h): 6.7%
- WBC (3 h): 133.5 x10_2/uL
- KIDNEY_L (3 h): 1 g
- KIDNEY_R (3 h): 0.9 g
- KIDNEY_TOTAL (3 h): 1.9 g
- LIVER (3 h): 9 g
- A/G (3 h): 1.3
- ALP (3 h): 1280.6 IU/L
- ALT (3 h): 43.4 IU/L
- AST (3 h): 82.8 IU/L
- BUN (3 h): 13.8 mg/dL
- CRE (3 h): 0.2 mg/dL
- Ca (3 h): 11 mg/dL
- Cl (3 h): 104.8 meq/L
- DBIL (3 h): 0.002 mg/dL
- GLC (3 h): 163.2 mg/dL
- IP (3 h): 9.3 mg/dL
- K (3 h): 4.1 meq/L
- LDH (3 h): 162.8 IU/L
- Na (3 h): 141.4 meq/L
- PL (3 h): 140.4 mg/dL
- RALB (3 h): 3 g/dL
- TBIL (3 h): 0.032 mg/dL
- TC (3 h): 69 mg/dL
- TG (3 h): 88.2 mg/dL
- TP (3 h): 5.3 g/dL
- gamma-GTP (3 h): 1.4 IU/L
- TERMINAL_BW (6 h): 213.9 g
- APTT (6 h): 22.1 s
- Bas (6 h): 0%
- Eos (6 h): 0.6%
- Fbg (6 h): 304.8 mg/dL
- Hb (6 h): 12.6 g/dL
- Ht (6 h): 37.5%
- Lym (6 h): 43.2%
- MCH (6 h): 20.7 pg
- MCHC (6 h): 33.6%
- MCV (6 h): 61.6 fL
- Mono (6 h): 3.6%
- Neu (6 h): 51.2%
- PT (6 h): 15.8 s
- Plat (6 h): 121.6 x10_4/uL
- RBC (6 h): 608.8 x10_4/ul
- Ret (6 h): 6.9%
- WBC (6 h): 133.1 x10_2/uL
- KIDNEY_L (6 h): 0.9 g
- KIDNEY_R (6 h): 1 g
- KIDNEY_TOTAL (6 h): 1.9 g
- LIVER (6 h): 9.3 g
- A/G (6 h): 1.3
- ALP (6 h): 1220.8 IU/L
- ALT (6 h): 40.8 IU/L
- AST (6 h): 75 IU/L
- BUN (6 h): 11.6 mg/dL
- CRE (6 h): 0.1 mg/dL
- Ca (6 h): 11.3 mg/dL
- Cl (6 h): 103.6 meq/L
- DBIL (6 h): 0.004 mg/dL
- GLC (6 h): 165.2 mg/dL
- IP (6 h): 10.4 mg/dL
- K (6 h): 4.3 meq/L
- LDH (6 h): 135.8 IU/L
- Na (6 h): 140 meq/L
- PL (6 h): 151 mg/dL
- RALB (6 h): 3 g/dL
- TBIL (6 h): 0.042 mg/dL
- TC (6 h): 79.8 mg/dL
- TG (6 h): 60.4 mg/dL
- TP (6 h): 5.4 g/dL
- gamma-GTP (6 h): 1.6 IU/L
- TERMINAL_BW (9 h): 213.9 g
- APTT (9 h): 22.8 s
- Bas (9 h): 0%
- Eos (9 h): 1%
- Fbg (9 h): 298.6 mg/dL
- Hb (9 h): 12.8 g/dL
- Ht (9 h): 38.3%
- Lym (9 h): 56%
- MCH (9 h): 20.9 pg
- MCHC (9 h): 33.5%
- MCV (9 h): 62.5 fL
- Mono (9 h): 2.8%
- Neu (9 h): 39.6%
- PT (9 h): 15.4 s
- Plat (9 h): 116 x10_4/uL
- RBC (9 h): 614 x10_4/ul
- Ret (9 h): 6.9%
- WBC (9 h): 117.1 x10_2/uL
- KIDNEY_L (9 h): 1 g
- KIDNEY_R (9 h): 1 g
- KIDNEY_TOTAL (9 h): 2 g
- LIVER (9 h): 8.2 g
- A/G (9 h): 1.2
- ALP (9 h): 1175.4 IU/L
- ALT (9 h): 42 IU/L
- AST (9 h): 79.6 IU/L
- BUN (9 h): 11.8 mg/dL
- CRE (9 h): 0.1 mg/dL
- Ca (9 h): 10.8 mg/dL
- Cl (9 h): 103.4 meq/L
- DBIL (9 h): 0 mg/dL
- GLC (9 h): 176.4 mg/dL
- IP (9 h): 10.3 mg/dL
- K (9 h): 4.2 meq/L
- LDH (9 h): 129.2 IU/L
- Na (9 h): 139.6 meq/L
- PL (9 h): 136.6 mg/dL
- RALB (9 h): 3 g/dL
- TBIL (9 h): 0.03 mg/dL
- TC (9 h): 75.4 mg/dL
- TG (9 h): 56.6 mg/dL
- TP (9 h): 5.4 g/dL
- gamma-GTP (9 h): 1.6 IU/L
- TERMINAL_BW (24 h): 212.8 g
- APTT (24 h): 20.5 s
- Bas (24 h): 0%
- Eos (24 h): 0.6%
- Fbg (24 h): 343 mg/dL
- Hb (24 h): 12.9 g/dL
- Ht (24 h): 37.4%
- Lym (24 h): 85%
- MCH (24 h): 20.5 pg
- MCHC (24 h): 34.6%
- MCV (24 h): 59.4 fL
- Mono (24 h): 3.8%
- Neu (24 h): 9.6%
- PT (24 h): 15.7 s
- Plat (24 h): 121.3 x10_4/uL
- RBC (24 h): 629 x10_4/ul
- Ret (24 h): 4.1%
- WBC (24 h): 73.2 x10_2/uL
- KIDNEY_L (24 h): 0.9 g
- KIDNEY_R (24 h): 0.9 g
- KIDNEY_TOTAL (24 h): 1.8 g
- LIVER (24 h): 9.4 g
- A/G (24 h): 1.3
- ALP (24 h): 1135 IU/L
- ALT (24 h): 39.8 IU/L
- AST (24 h): 70 IU/L
- BUN (24 h): 27.2 mg/dL
- CRE (24 h): 0.2 mg/dL
- Ca (24 h): 11.4 mg/dL
- Cl (24 h): 103.4 meq/L
- DBIL (24 h): 0 mg/dL
- GLC (24 h): 171.8 mg/dL
- IP (24 h): 10.5 mg/dL
- K (24 h): 4.8 meq/L
- LDH (24 h): 142.8 IU/L
- Na (24 h): 141 meq/L
- PL (24 h): 142.4 mg/dL
- RALB (24 h): 3.2 g/dL
- TBIL (24 h): 0.028 mg/dL
- TC (24 h): 79.4 mg/dL
- TG (24 h): 59.2 mg/dL
- TP (24 h): 5.8 g/dL
- gamma-GTP (24 h): 1.4 IU/L
